Like-named read-outs stand apart in the source and are kept apart here.
Assays:
[1] = system: Wheat Septoria nodorum blotch microorganism (Phaeosphaeria nodorum); assay: Anti-bacterial effect on various microorganisms (plate medium), P.n; assay type: cell-based
[2] = system: Wheat pink snow mold (Microdochium nivale); assay: Anti-bacterial effect on various microorganisms (plate medium), M.n; assay type: cell-based
[3] = system: Wheat eye spot (Pseudocercoporella herpotrichoides); assay: Anti-bacterial effect on various microorganisms (plate medium), P.h; assay type: cell-based
[4] = system: Alternaria blotch (Alternaria alternata); assay: Anti-bacterial effect on various microorganisms (plate medium), A.m; assay type: cell-based
[5] = system: Gray mold (Botritis cinerea); assay: Anti-bacterial effect on various microorganisms (plate medium), B.c; assay type: cell-based
[6] = system: Barley leaf blotch (Rhynchosporium secalis); assay: Anti-bacterial effect on various microorganisms (plate medium), R. sec; assay type: cell-based
[7] = system: Sclerotinia rot (Sclerotinia sclerotiorum); assay: Anti-bacterial effect on various microorganisms (plate medium), S.s; assay type: cell-based
[8] = system: Barley loose smut (Ustilago nuda); assay: Anti-bacterial effect on various microorganisms (plate medium), U.n; assay type: cell-based
[9] = system: Wheat fusarium blight (Fusarium graminearum); assay type: cell-based
[10] = system: wheat-brown-rust-causing microorganisms; assay: Controlling effect on wheat brown rust (spray, pot test); assay type: in vivo, Puccinia recondita; conditions: 1 mg/L sprayed at 1,000 L/ha, wheat NORIN No. 61, 9 to 14 days after inoculation
Description: Onto a wheat plant (cultivar: NORIN No. 61) grown to the two-leaf stage with use of a square plastic pot (6 cm×6 cm), a wettable formulation such as Formulation Example 1 which was diluted and suspended in water at a concentration of 1 mg/L was sprayed at a rate of 1,000 L/ha. The sprayed leaves were air-dried, and inoculated with spore suspension of wheat-brown-rust-causing microorganisms (adjusted at 200 spores/vision, […] was added at 60 ppm) by spraying, and kept at 25° C. and a high humidity for 48 hours. Thereafter, the plant was kept in a greenhouse. Nine to fourteen days after inoculation, the wheat brown rust lesion degree was evaluated. The protective value was calculated by the following equation. Protective value (%)=(1-mean lesion degree in sprayed plot/mean lesion degree in unsprayed plot)×100 [table] [table]

[11] = system: wheat leaf blight-causing microorganisms; assay: Anti-bacterial effect on wheat leaf blight-causing microorganisms (PDA plate, mycelial growth inhibition); assay type: cell-based, Septoria tritici; conditions: 1.25 mg/L in PDA plate medium, 25° C., 14 days
Description: In Test Examples, an anti-bacterial effect of a compound in accordance with the present invention on the wheat leaf blight-causing microorganisms was tested, and was compared with the anti-bacterial effect of a comparative compound (1).
A dimethyl sulfoxide solution (0.6 ml) containing a compound in accordance with the present invention was added to a PDA medium (potato dextrose agar medium) (60 ml) having about 60° C., and the resultant mixture was mixed thoroughly in a 100-ml conical flask. The mixture was poured into a dish, and was solidified. […]
On the other hand, a subject microorganism previously cultured on a plate medium was cut out with use of a cork borer whose diameter was 4 mm, and the wheat leaf blight-causing microorganism on the plate medium thus cut out was inoculated to the chemical-containing plate medium described above. After such inoculation, the chemical-containing plate medium was incubated at 25° C. for 14 days, and then diameters of its flora were measured. A % mycelial growth inhibition was calculated with use of the formula. R=100(dc−dt)/dc (where R=% mycelial extension inhibition, dc=flora diameter in untreated plate, dt=flora diameter in treated plate)
The results obtained as described above were evaluated on a five-point scale according to the following criteria.
• 5: % Mycerial growth inhibition of 80% or higher • 4: % Mycerial growth inhibition of less than 80 to 60% or higher • 3: % Mycerial growth inhibition of less than 60 to 40% or higher • 2: % Mycerial growth inhibition of less than 40 to 20% or higher • 1: % Mycerial growth inhibition of less than 20%

[12] = system: Cucumber fusarium wilt (Fusarium oxysporum); assay: Anti-bacterial effect on various microorganisms (plate medium), F.c; assay type: cell-based
[13] = system: Rice blast (Pyricularia oryzae); assay type: cell-based
[14] = system: Rice bacterial seeding blight (Rhizopus oryzae); assay: Anti-bacterial effect on various microorganisms (plate medium), R.o; assay type: cell-based
[15] = system: Rice bakanae disease (Giberella fujikuroi); assay: Anti-bacterial effect on various microorganisms (plate medium), G.f; assay type: cell-based

Row | Compound | Growth inhibition grade P.n ([1]; 1.25 mg/L) | Growth inhibition grade P.n ([1]; 5 mg/L) | Growth inhibition grade M.n ([2]; 1.25 mg/L) | Growth inhibition grade M.n ([2]; 5 mg/L) | Growth inhibition grade P.h ([3]; 1.25 mg/L) | Growth inhibition grade P.h ([3]; 5 mg/L) | Growth inhibition grade A.m ([4]; 1.25 mg/L) | Growth inhibition grade A.m ([4]; 5 mg/L) | Growth inhibition grade B.c ([5]; 1.25 mg/L) | Growth inhibition grade B.c ([5]; 5 mg/L) | Growth inhibition grade R. sec ([6]; 1.25 mg/L) | Growth inhibition grade R. sec ([6]; 5 mg/L) | Growth inhibition grade S.s ([7]; 1.25 mg/L) | Growth inhibition grade S.s ([7]; 5 mg/L) | Growth inhibition grade U.n ([8]; 1.25 mg/L) | Growth inhibition grade U.n ([8]; 5 mg/L) | Growth inhibition grade F.g ([9]; 1.25 mg/L) | Growth inhibition grade F.g ([9]; 5 mg/L) | Protective value [10] | Growth inhibition grade [11] | further results
1 | COC[C@]1(CBr)CC[C@@H](Cc2ccc(F)cc2)[C@]1(O)Cn1cncn1 (racemic) [Compound I-198, (1RS,2RS,5SR)-5-(4-fluorobenzyl)-2-bromomethyl-2-methoxymethyl-1H-[1,2,4]triazole-1-ylmethylcyclopentanol] | 4 (% Mycerial growth inhibition of less than 80 to 60% or higher) | 5 (% Mycerial growth inhibition of 80% or higher) | 4 (% Mycerial growth inhibition of less than 80 to 60% or higher) | 5 (% Mycerial growth inhibition of 80% or higher) | 4 (% Mycerial growth inhibition of less than 80 to 60% or higher) | 5 (% Mycerial growth inhibition of 80% or higher) | 4 (% Mycerial growth inhibition of less than 80 to 60% or higher) | 5 (% Mycerial growth inhibition of 80% or higher) | 5 (% Mycerial growth inhibition of 80% or higher) | 5 (% Mycerial growth inhibition of 80% or higher) | 5 (% Mycerial growth inhibition of 80% or higher) | 5 (% Mycerial growth inhibition of 80% or higher) | 5 (% Mycerial growth inhibition of 80% or higher) | 5 (% Mycerial growth inhibition of 80% or higher) | 4 (% Mycerial growth inhibition of less than 80 to 60% or higher) | 5 (% Mycerial growth inhibition of 80% or higher) | 4 (% Mycerial growth inhibition of less than 80 to 60% or higher) | 5 (% Mycerial growth inhibition of 80% or higher) | 4 (61 to 80) | 5 (% Mycerial growth inhibition of 80% or higher) | Growth inhibition grade F.c ([12]; 1.25 mg/L): 5 (% Mycerial growth inhibition of 80% or higher); Growth inhibition grade F.c ([12]; 5 mg/L): 5 (% Mycerial growth inhibition of 80% or higher); Growth inhibition grade P.o ([13]; 1.25 mg/L): 5 (% Mycerial growth inhibition of 80% or higher); Growth inhibition grade P.o ([13]; 5 mg/L): 5 (% Mycerial growth inhibition of 80% or higher); Growth inhibition grade R.o ([14]; 1.25 mg/L): 5 (% Mycerial growth inhibition of 80% or higher); Growth inhibition grade R.o ([14]; 5 mg/L): 5 (% Mycerial growth inhibition of 80% or higher); Growth inhibition grade G.f ([15]; 1.25 mg/L): 5 (% Mycerial growth inhibition of 80% or higher); Growth inhibition grade G.f ([15]; 5 mg/L): 5 (% Mycerial growth inhibition of 80% or higher)
2 | COC[C@]1(CBr)CC[C@@H](Cc2ccccc2)[C@]1(O)Cn1cncn1 (racemic) [Compound I-203, (1RS,2RS,5SR)-5-benzyl-2-bromomethyl-2-methoxymethyl-1H-[1,2,4]triazole-1-ylmethylcyclopentanol] | 4 (% Mycerial growth inhibition of less than 80 to 60% or higher) | 5 (% Mycerial growth inhibition of 80% or higher) | 5 (% Mycerial growth inhibition of 80% or higher) | 5 (% Mycerial growth inhibition of 80% or higher) | 4 (% Mycerial growth inhibition of less than 80 to 60% or higher) | 5 (% Mycerial growth inhibition of 80% or higher) | 4 (% Mycerial growth inhibition of less than 80 to 60% or higher) | 5 (% Mycerial growth inhibition of 80% or higher) | 5 (% Mycerial growth inhibition of 80% or higher) | 5 (% Mycerial growth inhibition of 80% or higher) | 5 (% Mycerial growth inhibition of 80% or higher) | 5 (% Mycerial growth inhibition of 80% or higher) | 5 (% Mycerial growth inhibition of 80% or higher) | 5 (% Mycerial growth inhibition of 80% or higher) | 5 (% Mycerial growth inhibition of 80% or higher) | 5 (% Mycerial growth inhibition of 80% or higher) | 5 (% Mycerial growth inhibition of 80% or higher) | 5 (% Mycerial growth inhibition of 80% or higher) | 4 (61 to 80) | 4 (% Mycerial growth inhibition of less than 80 to 60% or higher) | Growth inhibition grade F.c ([12]; 1.25 mg/L): 5 (% Mycerial growth inhibition of 80% or higher); Growth inhibition grade F.c ([12]; 5 mg/L): 5 (% Mycerial growth inhibition of 80% or higher); Growth inhibition grade P.o ([13]; 1.25 mg/L): 5 (% Mycerial growth inhibition of 80% or higher); Growth inhibition grade P.o ([13]; 5 mg/L): 5 (% Mycerial growth inhibition of 80% or higher); Growth inhibition grade R.o ([14]; 1.25 mg/L): 4 (% Mycerial growth inhibition of less than 80 to 60% or higher); Growth inhibition grade R.o ([14]; 5 mg/L): 5 (% Mycerial growth inhibition of 80% or higher); Growth inhibition grade G.f ([15]; 1.25 mg/L): 5 (% Mycerial growth inhibition of 80% or higher); Growth inhibition grade G.f ([15]; 5 mg/L): 5 (% Mycerial growth inhibition of 80% or higher)
3 | CCOC[C@]1(CCl)CC[C@@H](Cc2ccc(F)cc2)[C@]1(O)Cn1cncn1 (racemic) [Compound I-226, (1RS,2RS,5SR)-5-(4-fluorobenzyl)-2-chloromethyl-2-ethoxymethyl-1H-[1,2,4]triazole-1-ylmethylcyclopentanol] | 5 (% Mycerial growth inhibition of 80% or higher) | 5 (% Mycerial growth inhibition of 80% or higher) | 5 (% Mycerial growth inhibition of 80% or higher) | 5 (% Mycerial growth inhibition of 80% or higher) | 4 (% Mycerial growth inhibition of less than 80 to 60% or higher) | 5 (% Mycerial growth inhibition of 80% or higher) | 4 (% Mycerial growth inhibition of less than 80 to 60% or higher) | 5 (% Mycerial growth inhibition of 80% or higher) | 5 (% Mycerial growth inhibition of 80% or higher) | 5 (% Mycerial growth inhibition of 80% or higher) | 5 (% Mycerial growth inhibition of 80% or higher) | 5 (% Mycerial growth inhibition of 80% or higher) | 5 (% Mycerial growth inhibition of 80% or higher) | 5 (% Mycerial growth inhibition of 80% or higher) | 5 (% Mycerial growth inhibition of 80% or higher) | 5 (% Mycerial growth inhibition of 80% or higher) | 5 (% Mycerial growth inhibition of 80% or higher) | 5 (% Mycerial growth inhibition of 80% or higher) | 4 (61 to 80) | 5 (% Mycerial growth inhibition of 80% or higher) | Growth inhibition grade F.c ([12]; 1.25 mg/L): 5 (% Mycerial growth inhibition of 80% or higher); Growth inhibition grade F.c ([12]; 5 mg/L): 5 (% Mycerial growth inhibition of 80% or higher); Growth inhibition grade P.o ([13]; 1.25 mg/L): 5 (% Mycerial growth inhibition of 80% or higher); Growth inhibition grade P.o ([13]; 5 mg/L): 5 (% Mycerial growth inhibition of 80% or higher); Growth inhibition grade R.o ([14]; 1.25 mg/L): 5 (% Mycerial growth inhibition of 80% or higher); Growth inhibition grade R.o ([14]; 5 mg/L): 5 (% Mycerial growth inhibition of 80% or higher); Growth inhibition grade G.f ([15]; 1.25 mg/L): 5 (% Mycerial growth inhibition of 80% or higher); Growth inhibition grade G.f ([15]; 5 mg/L): 5 (% Mycerial growth inhibition of 80% or higher)
